Values joined by “and” are separate entries in the source; they are usually repeats but may differ in a detail not shown here. Identical values can stand only once. Counter-ions that a name gives are not always drawn.
System: ovarian cancer cells with (OVCAR8, OVCAR4) or without (OVSAHO, CAOV3) MYC-HSF1 amplification
Assay: Epigenetic inhibitor drug screen, cell viability (Cell Titer Blue)
Type: cell-based
Conditions: not given

| Compound | Non Amp - AMP (POC) 10 uM [POC] |
| --- | --- |
| O=C(Nc1ccc(CN2CCOCC2)cc1)c1ccc(-c2cccc(Cl)c2)o1 [CID 2011756] | 21.79 |
| CCCCCCCCCCCCCC(=O)O[C@@H]1[C@@H](C)[C@@]2(O)[C@@H](C=C(CO)C[C@]3(O)C(=O)C(C)=C[C@@H]23)[C@@H]2C(C)(C)[C@]12OC(C)=O [12-O-tetradecanoyl phorbol-13-acetate] | −2.545 |
| [NH2][Pt]1([NH2])[O]CC(=O)[O]1 [Nedaplatin] | −10.66 |

Same assay, conditions: 10 uM, 48 hrs; average relative cell viability (vs 1% DMSO) of non-amplified cells (OVSAHO, CAOV3) minus that of MYC-HSF1 amplified cells (OVCAR8, OVCAR4); positive = greater response in amplified cells

| Compound | Non Amp - AMP (POC) 10 uM [POC] |
| --- | --- |
| CCCCCCCc1ccc(CCc2cccc(O)c2C(=O)O)cc1 [MG 149] | −0.4614 |
| O=P(O)(O)OC(CO)CO [β-Glycerophosphate (sodium salt hydrate), β-Glycerophosphate] | 2.069 |
| C[C@@H]1O[C@@H](Oc2c(-c3cc(O)c(O)c(O)c3)oc3cc(O)cc(O)c3c2=O)[C@H](O)[C@H](O)[C@H]1O [Myricetrin] | −0.2723 |
| CCN(CCO)CCCOc1ccc2c(Nc3cc(CC(=O)Nc4cccc(F)c4)[nH]n3)ncnc2c1 [Barasertib (AZD1152-HQPA), Barasertib] | −16.49 |
| N#Cc1c(O)c2c(-c3ccc(-c4ccccc4O)cc3)csc2[nH]c1=O [A-769662] | −2.694 |
| O=C(/C=C/c1cccc(C(=O)NO)c1)NO [CBHA] | 37.53 |
| CN[C@@H]1C[C@H]2O[C@@](C)([C@@H]1OC)n1c3ccccc3c3c4c(c5c6ccccc6n2c5c31)C(=O)NC4 [Staurosporine] | 7.23 |
| O=C([O-])CCC(O)C(=O)[O-].[Na+].[Na+] (stereo not shown) [a-hydroxyglutaric Acid (sodium salt), a-hydroxyglutaric Acid] | 3.785 |
| Cc1nc(Nc2cnn(C3CCNCC3)c2)nc2c1N(C)C(=O)c1cc3ccccc3cc1N2C [HTH-01-015] | −3.924 |
| O=C(CCCCCCC(=O)Nc1cccnc1)NO [Pyroxamide] | 60.34 |
| CC(=O)N1c2ccc(-c3ccc(C(=O)O)cc3)cc2[C@H](Nc2ccc(Cl)cc2)C[C@@H]1C [GSK1324726A] | 0.1295 |
| C[C@H](NC(=O)/C(C#N)=C/c1cccc(Br)n1)c1ccccc1 [WP1066] | 3.079 |
| O=C(c1cccc(Cl)c1F)N1CCN(Cc2cccc(Nc3nccs3)n2)CC1 [MK-8745] | 10.66 |
| Inauhzin | −0.3441 |
| COc1cc(-c2cn(C)c(=O)c3cnccc23)c(OC)cc1CN(C)C [BI-9564] | 11 |
| O=S(=O)(O)c1ccc2cc(N=Nc3cc(S(=O)(=O)O)c4cccnc4c3O)ccc2c1 [NSC 87877] | 8.877 |
| COc1cc(Nc2ncc3c(n2)-c2ccc(Cl)cc2C(c2c(F)cccc2OC)=NC3)ccc1C(=O)O [MLN8237 (Alisertib), Alisertib] | −25.51 |
| CN(C)Cc1ccc(-c2nc3cccc4c3n2CCNC4=O)cc1 [AG-14361] | 0.2059 |
| c1ccc([C@@H]2C[C@H]2NC2CCNCC2)cc1 [GSK-LSD1 (hydrochloride)] | 14.88 |
| CCS(=O)(=O)N1CC(CC#N)(n2cc(-c3ncnc4[nH]ccc34)cn2)C1 [Baricitinib (LY3009104, INCB028050), Baricitinib] | −2.641 |

| Compound | Non Amp - AMP (POC) 10 uM [POC] |
| --- | --- |
| COc1cc(C#N)ccc1S(=O)(=O)Nc1ccc2c(c1)cc(C)c(=O)n2C [NI-57] | 11.2 |
| NC(=O)c1ccccc1 [Benzamide] | −5.576 |
| Cc1cn([C@H]2C[C@H](O)[C@@H](CO)O2)c(=O)nc1N [5-Methyl-2′-deoxycytidine] | −10.37 |
| Cc1cc(Nc2cc(CN3CCOCC3)c3nc(C)c(Cc4ccc(Cl)cc4F)n3n2)n[nH]1 [LY2784544] | −1.068 |
| O=C(NCc1ccncc1)C12CC3CC(C1)CC(c1ccc(Cl)cc1)(C3)C2 [ABC294640] | 4.657 |
| CC(C)c1cc(CNc2nc(Nc3cc(C4CC4)[nH]n3)cc(N3CCN(C)CC3)n2)on1 [XL228] | 17.3 |
| C=CC(=O)c1ccc2ccccc2c1 [ZM 449829] | 4.711 |
| CCS(=O)(=O)N1CCN(c2ccc(Nc3ncc(C(N)=O)c(NC4CC4)n3)cc2)CC1 [Cerdulatinib (PRT062070), Cerdulatinib] | −1.406 |
| COc1ccccc1C(=O)Nc1cc2c(cc1N1CCCCC1)n(C)c(=O)n2C [GSK 5959] | 10.99 |
| O=C1C(=Cc2cccnc2)C(=O)c2ccccc21 [PRT4165] | 1.398 |
| N#CCNC(=O)c1ccc(-c2ccnc(Nc3ccc(N4CCOCC4)cc3)n2)cc1 [CYT387] | −4.087 |
| Cl.O=S(=O)(c1cccc2cnccc12)N1CCNCC1 [HA-100 (hydrochloride)] | 12.45 |
| CN1CCN(c2cccc(Nc3nc4c(-c5ccc(S(C)(=O)=O)cc5)cccn4n3)c2)CC1 [CEP-33779] | 15.1 |
| COc1cc2ncnc(Nc3ccc(O)cc3)c2cc1OC [JANEX-1] | −13.67 |
| Clc1cc2c(NC3CCCC3)nnc(-c3ccncc3)c2cc1Cl [A-196] | 2.334 |
| CN(C)c1ccc(C(=O)NCCCCCCC(=O)NO)cc1 [M344] | 22.65 |
| O=C(O)CNC(=O)C(=O)O [N-Oxalylglycine] | 14.36 |
| COCCCn1c(N)c(C(=O)NC2CCCC2)c2nc3ccccc3nc21 [CAY10591] | 11.91 |
| O=C1NC(=O)/C(=C/c2cccc(C(F)(F)F)c2)S1 [SMI-4a] | −1.184 |

Same assay, conditions: 10 uM, 48 hrs; average relative cell viability (vs 1% DMSO) of non-amplified cells (OVSAHO, CAOV3) minus that of MYC-HSF1 amplified cells (OVCAR8, OVCAR4); positive = greater response in amplified cells; 10 µM

| Compound | Non Amp - AMP (POC) 10 uM |
| --- | --- |
| COc1cccc2c1C(=O)c1c(O)c3c(c(O)c1C2=O)C[C@@](O)(C(=O)CO)C[C@@H]3O[C@H]1C[C@H](N)[C@H](O)[C@H](C)O1 [Doxorubicin] | 4.864 POC |
| CCCCc1nc2cc(/C=C/C(=O)NO)ccc2n1CCN(CC)CC [SB939, Pracinostat] | 42.19 POC |
| O=C(O)c1ccnc(C(=O)O)c1 [2,4-Pyridinedicarboxylic Acid] | −1.887 POC |
| COc1cc2c(NC3CCN(C)CC3)nc(N3CCCN(C)CC3)nc2cc1OCCCN(C)C [UNC0224] | 7.132 POC |
| CNCc1ccc(-c2[nH]c3cc(F)cc4c3c2CCNC4=O)cc1 [Rucaparib (AG-014699, PF-01367338), Rucaparib] | 0.4948 POC |
| CC(/C=C/C(=O)NO)=C\[C@@H](C)C(=O)c1ccc(N(C)C)cc1 [Trichostatin A] | 47.34 POC |
| Cc1cc(C)cc(C(=O)NOCCCCCC(=O)NO)c1 [LMK 235] | 44.96 POC and 34.77 POC |
| COc1ccccc1C(=O)Nc1cc2c(cc1N1CCCC1)n(C)c(=O)n2C [PFI-4] | 17.43 POC |
| COc1ccccc1S(=O)(=O)Nc1ccc2c(c1)CN(C)C(=O)N2 [PFI-1] | 9.637 POC |
| CCCC(CCC)C(=O)O [Valproic acid] | −3.268 POC |
| O=C(/C=C/c1ccc(CN(CCO)CCc2c[nH]c3ccccc23)cc1)NO [LAQ824, Dacinostat] | 43.86 POC |
| CCN(CC)Cc1ccc2cc(COC(=O)Nc3ccc(C(=O)NO)cc3)ccc2c1 [ITF 2357, Givinostat] | 40.35 POC |

Same assay, conditions: 10 uM, 48 hrs; average relative cell viability (vs 1% DMSO) of non-amplified cells (OVSAHO, CAOV3) minus that of MYC-HSF1 amplified cells (OVCAR8, OVCAR4); positive = greater response in amplified cells; listed as ITF2357 (Givinostat), 10 µM

| Compound | Non Amp - AMP (POC) 10 uM [POC] |
| --- | --- |
| CCN(CC)Cc1ccc2cc(COC(=O)Nc3ccc(C(=O)NO)cc3)ccc2c1 [ITF 2357, Givinostat] | 13.67 |

Same assay, conditions: 10 uM, 48 hrs; average relative cell viability (vs 1% DMSO) of non-amplified cells (OVSAHO, CAOV3) minus that of MYC-HSF1 amplified cells (OVCAR8, OVCAR4); positive = greater response in amplified cells; listed as LAQ824 (NVP-LAQ824, Dacinostat), 10 µM

| Compound | Non Amp - AMP (POC) 10 uM [POC] |
| --- | --- |
| O=C(/C=C/c1ccc(CN(CCO)CCc2c[nH]c3ccccc23)cc1)NO [LAQ824, Dacinostat] | 28.82 |

Same assay, conditions: 10 uM, 48 hrs; average relative cell viability (vs 1% DMSO) of non-amplified cells (OVSAHO, CAOV3) minus that of MYC-HSF1 amplified cells (OVCAR8, OVCAR4); positive = greater response in amplified cells; listed as PFI 4, 10 µM

| Compound | Non Amp - AMP (POC) 10 uM [POC] |
| --- | --- |
| COc1ccccc1C(=O)Nc1cc2c(cc1N1CCCC1)n(C)c(=O)n2C [PFI-4] | −0.5403 |

Same assay, conditions: 10 uM, 48 hrs; average relative cell viability (vs 1% DMSO) of non-amplified cells (OVSAHO, CAOV3) minus that of MYC-HSF1 amplified cells (OVCAR8, OVCAR4); positive = greater response in amplified cells; listed as PFI-1 (PF-6405761), 10 µM

| Compound | Non Amp - AMP (POC) 10 uM [POC] |
| --- | --- |
| COc1ccccc1S(=O)(=O)Nc1ccc2c(c1)CN(C)C(=O)N2 [PFI-1] | 2.51 |

Same assay, conditions: 10 uM, 48 hrs; average relative cell viability (vs 1% DMSO) of non-amplified cells (OVSAHO, CAOV3) minus that of MYC-HSF1 amplified cells (OVCAR8, OVCAR4); positive = greater response in amplified cells; listed as Pracinostat (SB939), 10 µM

| Compound | Non Amp - AMP (POC) 10 uM [POC] |
| --- | --- |
| CCCCc1nc2cc(/C=C/C(=O)NO)ccc2n1CCN(CC)CC [SB939, Pracinostat] | 22.93 |

Same assay, conditions: 10 uM, 48 hrs; average relative cell viability (vs 1% DMSO) of non-amplified cells (OVSAHO, CAOV3) minus that of MYC-HSF1 amplified cells (OVCAR8, OVCAR4); positive = greater response in amplified cells; listed as Trichostatin A (TSA), 10 µM

| Compound | Non Amp - AMP (POC) 10 uM [POC] |
| --- | --- |
| CC(/C=C/C(=O)NO)=C\[C@@H](C)C(=O)c1ccc(N(C)C)cc1 [Trichostatin A] | 28.28 |

Same assay, conditions: 10 uM, 48 hrs; average relative cell viability (vs 1% DMSO) of non-amplified cells (OVSAHO, CAOV3) minus that of MYC-HSF1 amplified cells (OVCAR8, OVCAR4); positive = greater response in amplified cells; listed as UNC 0224, 10 µM

| Compound | Non Amp - AMP (POC) 10 uM [POC] |
| --- | --- |
| COc1cc2c(NC3CCN(C)CC3)nc(N3CCCN(C)CC3)nc2cc1OCCCN(C)C [UNC0224] | −1.296 |
